Assays:
TAS2R30-H2 = test: Calcium imaging in HEK 293T Gα16gust44 cells transfected with TAS2R30-H2; assay type: cell-based, human
Excerpt: (§1) Allelic responses to agonists were quantified using in vitro heterologous expression assays designed in previous studies of TAS2R receptor function, which successfully mimic responses in vivo with respect to both magnitude and concentration range [17, 23, 25, 26, 46]. DNA fragments containing TAS2R coding sequences were first amplified from genomic DNA by PCR using a proofreading polymerase (PfuUltra II Fusion HotStart DNA Polymerase; Agilent Technologies, Santa Clara, CA, USA) and cloned into a plasmid vector according to the manufacturer’s protocol (Zero Blunt TOPO PCR Cloning Kit; Life Technologies). A second PCR was performed using specific cloning primers to facilitate subcloning into the expression vector, which was then modified to add an N-terminal signal for cell surface localisation and a C-terminal epitope for immunocytochemical detection to the receptor sequence (Fast Link DNA Ligation Kit; Epicentre, Illumina Inc., Madison, WI, USA) (pcDNA5/FRT Mammalian Expression Vector; Life Technologies). Empty vector was used as a negative control.
(§2) Functional assays were carried out in HEK 293T cells stably expressing the G protein chimera Gα16gust44 and transiently transfected with TAS2R alleles subcloned into the expression vector [78]. Calcium imaging was performed using an automated fluorometric imaging plate reader by exposing transfected cells to test compounds dissolved in assay buffer or to assay buffer alone (FLIPR Tetra; Molecular Devices, LLC, Sunnyvale, CA, USA). Changes in cytosolic calcium levels were monitored by measuring fluorescence intensity of a calcium-sensitive dye previously added (Fluo-4 AM; Life Technologies). Six replicates were carried out for each bitter stimulus, on separate experimental days, with each replicate consisting of concentration series of each bitter tastant.
(§3) Prior to final analysis, fluorescence data from functional assays, expressed in relative fluorescence units (RFU), underwent three corrections. First, a correction calculated from baseline values was applied to compensate for well-to-well fluctuations. A second correction calculated from negative control values was applied to correct for receptor independent artefacts and signal drift. A third correction calculated from positive control values was applied to facilitate comparison of data obtained from different experimental days. Fluorescence ratios ((F-F0)/F0), obtained by subtracting the background fluorescence from fluorescence peak height and then dividing the difference by the background fluorescence, were then used for data analysis. Variance analyses were performed, followed by Bonferroni multiple comparisons tests (SPSS 20; IBM Corporation, Armonk, NY, USA). Threshold response values were then defined as the first concentration eliciting a significant activation of the receptor, with empty vector acting as a negative control. Finally, dose-response curves were fitted to the Hill equation by nonlinear regression in order to determine half maximal effective concentrations (EC50) and maximal amplitude (SigmaPlot; Systat Software Inc., Chicago, IL, USA).

TAS2R46-H3 = test: Calcium imaging in HEK 293T Gα16gust44 cells transfected with TAS2R46-H3; assay type: cell-based, human; conditions: for threshold: first concentration eliciting significant receptor activation
Excerpt: as §1, §2, §3

TAS2R46-H2 = biological target: T1, TAS2R46-H2 (Homo sapiens, UniProt P59540); test: Calcium imaging in HEK 293T Gα16gust44 cells transfected with TAS2R46-H2; assay type: cell-based; conditions: TAS2R46-H2, truncated variant (premature stop codon)
T1 construct: TAS2R46-H2, a truncated, six-transmembrane variant of the receptor; N-terminal signal for cell surface localisation (N); expressed in transfected cells; host or cells: HEK 293T cells stably expressing the G protein chimera Gα16gust44
T1 sequence (P59540 1-249 limits assumed): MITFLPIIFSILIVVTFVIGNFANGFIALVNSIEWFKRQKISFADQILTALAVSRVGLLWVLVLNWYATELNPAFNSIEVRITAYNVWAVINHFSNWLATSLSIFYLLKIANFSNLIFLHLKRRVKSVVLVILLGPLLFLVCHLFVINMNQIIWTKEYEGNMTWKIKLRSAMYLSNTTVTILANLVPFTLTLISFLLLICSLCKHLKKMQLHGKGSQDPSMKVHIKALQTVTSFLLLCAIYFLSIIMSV
Excerpt: as §1, §2, §3

TAS2R46-H1 = biological target: T2, TAS2R46-H1 (Homo sapiens, UniProt P59540); test: Calcium imaging in HEK 293T Gα16gust44 cells transfected with TAS2R46-H1; assay type: cell-based; conditions: for threshold: first concentration eliciting significant receptor activation
T2 construct: N-terminal signal for cell surface localisation (N); expressed in transfected cells; host or cells: HEK 293T cells stably expressing the G protein chimera Gα16gust44
T2 sequence (P59540 1-309): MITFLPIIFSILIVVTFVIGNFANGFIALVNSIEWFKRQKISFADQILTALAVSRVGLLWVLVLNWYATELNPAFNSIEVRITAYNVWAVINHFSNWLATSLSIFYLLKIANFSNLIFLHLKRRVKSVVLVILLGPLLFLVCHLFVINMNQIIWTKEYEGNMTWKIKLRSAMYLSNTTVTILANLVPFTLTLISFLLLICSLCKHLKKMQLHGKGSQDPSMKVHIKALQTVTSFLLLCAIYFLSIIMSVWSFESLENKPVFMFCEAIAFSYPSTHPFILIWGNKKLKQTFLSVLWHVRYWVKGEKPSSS
Excerpt: as §1, §2, §3

[1] = system: bitter taste perception of 48 Caucasian subjects; test: Human psychophysical bitter taste tests (4-AFC recognition thresholds, gLMS intensity ratings); assay type: in vivo; conditions: for recognition threshold, fold range across subjects: 48 human subjects; for concentration perceived as strongly bitter, fold range across subjects / concentration perceived as strongly bitter, mode: gLMS strong intensity; for concentration perceived as weakly bitter, fold range across subjects / concentration perceived as weakly bitter, mode: gLMS weak intensity
Protocol: All were pre-screened to avoid inclusion of individuals with health problems and overt taste pathologies; pregnant and breast-feeding women were also excluded. Each subject participated in the entire course of the study, which included one training session and nine experimental sessions. Visits consisted of DNA collection and psychophysical tests for genotyping and phenotypic analyses, respectively. General taste abilities were also assessed for the bitter, salty, sour, and sweet taste during the first session.
Experiments were conducted at the sensory analysis laboratory of the German Institute of Human Nutrition Potsdam-Rehbruecke, according to good practice guidelines. […] Perceived bitter taste intensities were rated on the general Labelled Magnitude Scale (gLMS; [72–74]). […] For each 4-AFC test, four coded samples containing 10 ml solution were presented simultaneously; one containing the bitter tastant diluted in mineral water (Evian; Danone, Paris, France) and three containing mineral water only. At each concentration, subjects were challenged to identify the different sample, specify whether the quoted sample tasted bitter, and rate the perceived bitter intensity. Tests were performed with nose clips and oral rinsing, with a 45 s pause between concentrations. Training sessions were first used to familiarize subjects with the experimental procedures, and secondly, to assess general taste abilities. Concentration series consisted of geometric sequences of […], with a 1.5 common ratio and the following concentration ranges: 3.5x10^-5–2.0x10^-3M, 6.9x10^-4–4.0x10^-2 M, 2.6x10^-4–1.5x10^-2 M, 6.9x10^-4–4.0x10^-2 M, for salicin, sodium chloride, citric acid, and sucrose used as reference tastants for bitter, salty, sour, and sweet taste, respectively. Following training, subjects tested each tastant in triplicate over nine sessions. Latin square designs extended for first-order carry-over effects were used to counterbalance presentation order of the test compounds over the test sessions, across subjects and for each test compound, as well as presentation order of the samples at each concentration across both repetitions and subjects. Sensory sessions were monitored and data automatically collected (Fizz; Biosystèmes, Couternon, France).
Detection and recognition probabilities of the bitter samples were analysed per repetition and subject. Relationships between probabilities (detection or recognition probabilities) and concentrations were fitted by a logistic regression model using the maximum-likelihood method. Threshold value and slope of the logistic curves were then obtained per repetition and subject, using a self-implemented toolbox (Matlab; The MathWorks Inc.). […] Where required, outliers were discarded according to the Peirce’s criterion. Perceived intensities, expressed in percentage of the scale length, were analysed similarly.

[2] = system: every known TAS2R in humans; set-up: method as in PMID 20022913; conditions: complete TAS2R family; cited from earlier work
TAS2R30-H1 = test: Calcium imaging in HEK 293T Gα16gust44 cells transfected with TAS2R30-H1; assay type: cell-based, human
Excerpt: as §1, §2, §3

[3] = system: TAS2R30, -31, -43, and -46; test: Calcium imaging functional assays, statements across TAS2R loci (variants not resolved); assay type: cell-based, human; conditions: TAS2R30 and -46 variants
Excerpt: as §1
as §2, with “Six replicates were carried out for each bitter stimulus, on separate experimental days, with each replicate consisting of concentration series of each bitter tastant.” left out
Prior to final analysis, fluorescence data from functional assays, expressed in relative fluorescence units (RFU), underwent three corrections. First, a correction calculated from baseline values was applied to compensate for well-to-well fluctuations. A second correction calculated from negative control values was applied to correct for receptor independent artefacts and signal drift. […]

TAS2R43-H1 = test: Calcium imaging in HEK 293T Gα16gust44 cells transfected with TAS2R43-H1; assay type: cell-based, human
Excerpt: as §1, §2
as §3, with “Threshold response values were then defined as the first concentration eliciting a significant activation of the receptor, with empty vector acting as a negative control. Finally, dose-response curves were fitted to the Hill equation by nonlinear regression in order to determine half maximal effective concentrations (EC50) and maximal amplitude (SigmaPlot; Systat Software Inc., Chicago, IL, USA).” left out

TAS2R43-H2 = test: Calcium imaging in HEK 293T Gα16gust44 cells transfected with TAS2R43-H2; assay type: cell-based, human
Excerpt: as §1, §2
as §3, with “Threshold response values were then defined as the first concentration eliciting a significant activation of the receptor, with empty vector acting as a negative control. Finally, dose-response curves were fitted to the Hill equation by nonlinear regression in order to determine half maximal effective concentrations (EC50) and maximal amplitude (SigmaPlot; Systat Software Inc., Chicago, IL, USA).” left out

[4] = first concentration eliciting significant receptor activation

SMILES | EC50 (TAS2R46-H3) [µM] | maximum amplitude (TAS2R46-H3) | threshold (TAS2R46-H3) [µM] | receptor variant response (TAS2R46-H2) | EC50 (TAS2R46-H1) [µM] | maximum amplitude (TAS2R46-H1) | threshold (TAS2R46-H1) [µM] | recognition threshold, fold range across subjects [1] [fold] | concentration perceived as strongly bitter, fold range across subjects [1] [fold] | concentration perceived as strongly bitter, mode [1] [µM] | concentration perceived as weakly bitter, fold range across subjects [1] [fold] | concentration perceived as weakly bitter, mode [1] [µM] | TAS2Rs responsive in published receptor-agonist inventory [2] | further results
CC1=C[C@H]2[C@H]3[C@H](C(C)=C4[C@H]5OC(=O)[C@@H](C)[C@@H]5CC[C@](C)(O)[C@@H]43)[C@@]13[C@@H]2[C@@](C)(O)CC[C@H]1[C@H](C)C(=O)O[C@@H]13 [absinthin] | 14 | 0.48 ΔF/F | 10 | no response at any concentration | 11 | 0.63 ΔF/F | 3 | 40 | 5 | 1.3 | 15 | 0.39 | TAS2R30 and -46 | EC50 (TAS2R30-H2): 1.3 µM; maximum amplitude (TAS2R30-H2): 0.15 ΔF/F; threshold (TAS2R30-H2; [4]): 1000 nM; EC50 (TAS2R30-H1): 3.1 µM; maximum amplitude (TAS2R30-H1): 0.41 ΔF/F; threshold (TAS2R30-H1; [4]): 300 nM
CC(=O)O[C@@H]1C[C@]2(C)[C@H](CC[C@@H](O)[C@]2(C)O)[C@@](C=O)(C[C@@H](O)c2ccoc2)[C@@H]1C [cascarillin] |  |  |  | insensitive |  |  |  | 17 |  |  | 11 |  |  | receptor variant response (TAS2R30-H2): insensitive; receptor variant response (TAS2R46-H3): intermediate; minimum concentration required to elicit response in functional assays [3]: 30 µM; receptor variant response (TAS2R46-H1): sensitive; receptor variant response (TAS2R30-H1): sensitive
C=C1C(=O)O[C@H]2[C@H]1[C@@H](O)CC(=C)[C@@H]1CC(=O)[C@@H](C)[C@H]21 [grosheimin] | 7.6 | 0.50 ΔF/F | 3 | not activated at any concentration | 5.6 | 0.87 ΔF/F | 1 | 25 | 5 | 33 | 17 | 15 | only TAS2R43 and -46 | EC50 (TAS2R43-H1): 16 µM; maximum amplitude (TAS2R43-H1): 0.60 ΔF/F; threshold (TAS2R43-H1; [4]): 10 µM; EC50 (TAS2R43-H2): 6.9 µM; maximum amplitude (TAS2R43-H2): 0.81 ΔF/F; threshold (TAS2R43-H2; [4]): 3 µM

— article PMC4583475, “Receptor Polymorphism and Genomic Structure Interact to Shape Bitter Taste Perception” (PLoS Genetics, 2015)
